This is an account of results in patent US20240042050A1, “ANTI-HER2 IMMUNOCONJUGATES, AND USES THEREOF” (BOLT BIOTHERAPEUTICS, INC., priority 2020, published 2024).

As usually defined, the EC50 is the concentration giving half of the maximal effect.

Experiment [1] deals with T1, human TLR7 (Homo sapiens, UniProt Q9NYK1).
T1 construct: host or cells: HEK293 NF-kB reporter cells
T1 sequence (Q9NYK1 27-1049): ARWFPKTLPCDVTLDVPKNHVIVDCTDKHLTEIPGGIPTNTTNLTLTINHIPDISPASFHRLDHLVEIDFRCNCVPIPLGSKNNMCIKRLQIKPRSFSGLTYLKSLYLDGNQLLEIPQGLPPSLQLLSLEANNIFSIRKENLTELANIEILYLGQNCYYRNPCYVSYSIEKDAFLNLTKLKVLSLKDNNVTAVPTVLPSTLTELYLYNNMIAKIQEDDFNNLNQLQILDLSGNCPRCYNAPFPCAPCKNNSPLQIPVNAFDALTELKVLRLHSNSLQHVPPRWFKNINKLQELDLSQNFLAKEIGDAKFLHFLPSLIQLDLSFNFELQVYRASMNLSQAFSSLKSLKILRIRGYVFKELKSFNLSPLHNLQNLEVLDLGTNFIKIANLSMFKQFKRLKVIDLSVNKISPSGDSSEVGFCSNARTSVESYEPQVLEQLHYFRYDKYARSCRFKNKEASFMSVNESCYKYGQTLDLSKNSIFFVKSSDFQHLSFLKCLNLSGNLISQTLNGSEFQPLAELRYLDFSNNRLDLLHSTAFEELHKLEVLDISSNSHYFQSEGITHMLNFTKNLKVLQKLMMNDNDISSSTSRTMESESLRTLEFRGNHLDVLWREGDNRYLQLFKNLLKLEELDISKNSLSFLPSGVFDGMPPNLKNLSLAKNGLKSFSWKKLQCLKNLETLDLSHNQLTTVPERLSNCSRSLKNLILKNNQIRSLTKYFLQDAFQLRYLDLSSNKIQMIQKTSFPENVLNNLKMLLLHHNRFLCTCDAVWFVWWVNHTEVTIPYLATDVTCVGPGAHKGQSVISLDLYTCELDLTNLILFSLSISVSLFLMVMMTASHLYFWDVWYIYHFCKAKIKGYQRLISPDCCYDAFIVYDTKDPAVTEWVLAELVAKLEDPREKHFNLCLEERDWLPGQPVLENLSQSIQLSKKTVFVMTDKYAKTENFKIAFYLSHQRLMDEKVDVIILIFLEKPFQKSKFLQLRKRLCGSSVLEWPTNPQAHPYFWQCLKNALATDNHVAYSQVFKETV
Nature of the experiment: HEK Reporter Assay, HEK293 reporter cells expressing human TLR7. Type of experiment: cell-based. The settings on record: HEK293 NFKB reporter cells expressing human TLR7; read-out: HEK293 hTLR7 EC50. On the procedure: (§1) Each compound was synthesized, purified, and characterized by mass spectrometry and shown to have the mass indicated. Additional experimental procedures are found in the Examples. Activity against HEK293 NFKB reporter cells expressing human TLR7 or human TLR8 was measured according to Example 202.
(§2) Example 202 HEK Reporter Assay
(§3) HEK293 reporter cells expressing human TLR7 or human TLR8 were purchased from Invivogen and vendor protocols were followed for cellular propagation and experimentation. Briefly, cells were grown to 80-85% confluence at 5% CO2 in DMEM supplemented with 10% FBS, Zeocin, and Blasticidin. Cells were then seeded in 96-well flat plates at 4×10^4 cells/well with substrate containing HEK detection medium and immunostimulatory molecules.
A general note: Reporter assays use an easily measured gene product as a stand-in for the process of interest.

In experiment [2] the target is T2, human TLR8 (Homo sapiens, UniProt Q9NR97).
T2 construct: host or cells: HEK293 NF-kB reporter cells
T2 sequence (Q9NR97 27-1041): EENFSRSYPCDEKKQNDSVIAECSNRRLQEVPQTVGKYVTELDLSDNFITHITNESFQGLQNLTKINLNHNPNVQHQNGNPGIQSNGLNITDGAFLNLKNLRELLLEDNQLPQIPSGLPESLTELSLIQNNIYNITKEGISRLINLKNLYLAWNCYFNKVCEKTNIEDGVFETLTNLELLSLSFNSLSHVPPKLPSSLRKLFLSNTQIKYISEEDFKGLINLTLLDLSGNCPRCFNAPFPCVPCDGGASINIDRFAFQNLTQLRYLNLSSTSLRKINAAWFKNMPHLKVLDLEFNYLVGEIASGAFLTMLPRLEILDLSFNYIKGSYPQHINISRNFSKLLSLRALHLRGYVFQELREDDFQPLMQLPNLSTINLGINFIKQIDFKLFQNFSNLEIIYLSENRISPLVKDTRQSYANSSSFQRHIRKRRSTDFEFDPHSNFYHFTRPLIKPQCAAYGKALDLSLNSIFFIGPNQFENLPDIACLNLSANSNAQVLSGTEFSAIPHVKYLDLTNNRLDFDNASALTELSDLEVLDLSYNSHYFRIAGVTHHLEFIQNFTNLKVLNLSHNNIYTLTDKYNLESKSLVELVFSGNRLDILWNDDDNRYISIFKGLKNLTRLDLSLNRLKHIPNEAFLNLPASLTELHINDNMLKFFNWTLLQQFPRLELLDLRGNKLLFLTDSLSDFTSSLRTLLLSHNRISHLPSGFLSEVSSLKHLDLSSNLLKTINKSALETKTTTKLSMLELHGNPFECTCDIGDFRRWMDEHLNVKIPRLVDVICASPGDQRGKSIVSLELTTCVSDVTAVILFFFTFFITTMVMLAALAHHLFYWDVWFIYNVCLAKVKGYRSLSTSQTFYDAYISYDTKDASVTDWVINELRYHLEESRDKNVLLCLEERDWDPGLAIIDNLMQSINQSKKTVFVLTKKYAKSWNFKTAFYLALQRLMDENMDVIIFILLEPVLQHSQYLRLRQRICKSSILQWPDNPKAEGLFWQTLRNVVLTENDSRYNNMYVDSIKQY
Nature of the experiment: HEK Reporter Assay, HEK293 reporter cells expressing human TLR8. Type of experiment: cell-based. The settings on record: HEK293 NFKB reporter cells expressing human TLR8; read-out: HEK293 hTLR8 EC50. On the procedure: as §1, §2, §3

Molecules are shown by their SMILES.

For the compound `CCCN(CCCCO)C(=O)C1=Cc2ccc(-c3cccc(S(=O)(=O)N4CC(CNC(=O)OC(C)(C)C)C4)c3)cc2N=C(N)C1` [PhBz-9], the EC50 came to 5140 nM in experiment [1] and 1080 nM in experiment [2].

For the compound `CCCN(CCO)C(=O)C1=Cc2ccc(-c3cccc(S(=O)(=O)N4CC(CNC(=O)OC(C)(C)C)C4)c3)cc2N=C(N)C1` [PhBz-21], the figures for the EC50 in experiment [1] and in experiment [2] were 3520 nM and 423 nM, respectively.

Consider `CCCN(OCCO)C(=O)C1=Cc2ccc(-c3cccc(S(=O)(=O)N4CC(CN)C4)c3)cc2N=C(N)C1` [PhBz-25], for which the EC50 in experiment [2] stood at 822 nM.
